One cell line from the supplement of paper PMC10307832 can be followed below.

What all share (experiment): relative viability (nuclei count vs DMSO), 5 days (fraction); higher = more cells survive
Compound in assay [1]: CC1=CN2C(=O)C=C(N=C2C(=C1)C(C)NC3=CC=CC=C3)N4CCOCC4 [TGX 221] + N=C(N)NC(=N)NCCc1ccccc1 [Phenformin] (partner 250 µM)
In outline: (§1)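 The day after seeding in 1536-well plates, lung cancer cell lines were treated by pin tool with a single drug, or with a fixed anchor-drug dose together with five library-drug doses (not always all listed) in √10 steps. After 5 days, a combined fix-and-stain solution (final 0.05% Triton X-100, 1% formaldehyde, 1 ug/ml Hoechst) was added. Nuclei counted on 4× images gave relative viability as treated counts over vehicle counts, reported as the median of duplicate plates.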

Compound in assay [2]: C1=CC=C(C(=C1)C2=CC=C(C=C2)C3=CSC4=C3C(=C(C(=O)N4)C#N)O)O + Cc1nc(NC(=O)N2CCC[C@H]2C(N)=O)sc1-c1ccnc(C(C)(C)C(F)(F)F)c1 [Alpelisib] (partner 2 µM)
An outline of the steps: as §1

Compound in assay [3]: O=C(CCCCCCNC(=O)c1cnc(N(c2ccccc2)c2ccccc2)nc1)NO [Ricolinostat] + CS(=O)(=O)N1CCN(Cc2cc3nc(-c4cccc5[nH]ncc45)nc(N4CCOCC4)c3s2)CC1 [Pictilisib] (partner 1 µM)
An outline of the steps: as §1

Compound in assay [4]: O=C(CCCCCCNC(=O)c1cnc(N(c2ccccc2)c2ccccc2)nc1)NO [Ricolinostat] + O=C(c1cc(Cc2n[nH]c(=O)c3ccccc23)ccc1F)N1CCN(C(=O)C2CC2)CC1 [Olaparib] (partner 8 µM)
In outline: as §1

Compound in assay [5]: O=C(CCCCCCNC(=O)c1cnc(N(c2ccccc2)c2ccccc2)nc1)NO [Ricolinostat] + Nc1ncn([C@H]2C[C@H](O)[C@@H](CO)O2)c(=O)n1 [Decitabine] (partner 2 µM)
An outline of the steps: as §1

For NCI-H1792, the relative viability in assay [1] (first compound 0.8 µM) amounted to 0.249; in assay [1] (first compound 2.53 µM), 0.319; in assay [1] (first compound 8 µM) it was 0.283; in assay [2] (first compound 0.253 µM) it was 0.638; in assay [2] (first compound 0.8 µM), 0.744; in assay [2] (first compound 2.53 µM) it was 0.612. The relative viability in assay [2] (first compound 8 µM) is 0.336; in assay [3] (first compound 0.08 µM), 0.248; in assay [3] (first compound 0.253 µM), 0.281; in assay [3] (first compound 0.8 µM), 0.243; in assay [3] (first compound 2.53 µM) it was 0.169; in assay [4] (first compound 0.253 µM) it was 0.391. Besides, the relative viability amounted to 0.284 in assay [4] (first compound 0.8 µM); 0.041 in assay [4] (first compound 2.53 µM); 0.484 in assay [5] (first compound 0.253 µM); 0.492 in assay [5] (first compound 0.8 µM); 0.366 in assay [5] (first compound 2.53 µM).
